Here are results for 14 molecules from patent publication US11560391B2, “Sulfonylurea compounds as inhibitors of interleukin-1 activity” (Genentech, Inc., priority 2018, dated 2023).

Where two headings read alike, the source gives them in different places.

Test [1] has as its target T1, NLRP3 inflammasome (Homo sapiens, UniProt Q96P20).
T1 construct: freshly isolated from human peripheral blood from healthy donors; StemCells Technologies; host or cells: primary human PBMCs
As to the kind of experiment: NLRP3 inflammasome activation assay in LPS-primed, nigericin-stimulated PBMCs, IL-1β release. It counts as cell-based. As to conditions: 10 μM nigericin. A digest of the protocol: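 Fresh or cryopreserved human PBMCs primed with 100 ng/mL LPS for 3 h, pre-incubated 30 min with compound (0.00017-10 uM, or 2-fold 20-point series from 40 μM), then stimulated with 10 μM nigericin for 1.5 h at 37 °C. Supernatant IL-1β measured by ELISA or by HTRF (665/620 ratio).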

Test [2] deals with PBMCs. The test can be described thus: CTG (CellTiter-Glo) viability assay of compound-treated LPS and nigericin stimulated PBMCs. As to conditions: Homo sapiens, PBMC. The test is classed as cell-based, human. A digest of the protocol:
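Human PBMCs primed with 100 ng/mL LPS for 3 h, pre-incubated 30 min with compound (0.00017–10 uM) in FBS-free medium, then stimulated with 10 μM nigericin for 1.5 h. Viability read by CellTiter-Glo ATP luminescence as a cytotoxicity counter-screen.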
Background: In ATP-based viability assays light output follows the ATP content of the culture.

In test [3] the test system is TNFα. The test can be described thus: TNFα levels of LPS and nigericin stimulated PBMCs (counter-screen). To be noted: Homo sapiens, PBMC. The test is classed as cell-based. The method, then: Human peripheral blood mononuclear cells (PBMCs), consisting of lymphocytes (T, B and NK cells), monocytes and dendritic cells, are freshly isolated from human peripheral blood from healthy donors. Cells are obtained through an IRB approved donor program by iXCells Biotechnologies where all the donors are tested for bacterial and viral infections. Cells are purified from peripheral blood using ficoll gradient centrifugation.
Fresh or cryopreserved PMBCs are seeded in V-bottom 96-well plate at 0.5-1×10^5 cells per well and incubated overnight at 37° C. with 5% CO2 in RPMI 1640 medium with GlutaMAX supplement, 4.5 g/L D-glucose, 10% Fetal Bovine Serum (FBS), […] Sodium Pyruvate, 1% Penicillin/Streptomycin, 10 mM HEPES and 0.05 mM of […]. Freshly isolated or cryopreserved KCs cells are seeded in flat-bottom 96-well plates at 0.6-1.5×10^5 cells/well and incubated overnight at 37° C., 5% CO2 in RPMI 1640 Medium with GlutaMAX supplement, FBS, 1% Penicillin/Streptomycin and 10 mM HEPES. The following day, the cells are primed with 100 ng/mL of lipopolysaccharides (LPS; Sigma Aldrich) in FBS-free RPMI 1640 for 3 h. After the priming step, the media is removed and PBMCs are pre-incubated with serial concentrations of test compounds (0.00017-10 uM) or vehicle (DMSO) for 30 min in FBS-free media prior to addition of the NLRP3 activator. Cells are then stimulated with 10 μM Nigericin (Sigma Aldrich; InvivoGen) for 1.5 h. Plates were centrifuged at 1,500 rpm for 3 minutes to pellet cells and supernatant was transferred into new plates for subsequent experiments.
For ELISA assays cells are seeded into 96-well plates. Post study, supernatants are removed and the levels of mature IL-1β, IL18 and TNFα (Quantikine ELISA, R&D systems) are measured in cell conditioned media by ELISA according to manufacturer's instructions.
TNFα levels of LPS and nigericin stimulated cells are measured by HTRF assay (Cisbio, Bedford, Mass.). […] Measuring TNFalpha production also serves as a technical counter-screen to eliminate compounds that interfere with the HTRF reagents. Thus compounds that inhibit both IL-1β and TNFα levels are triaged for either being non-selective for inflammasome or interfering with the HTRF readout.
(The purpose of a counterscreen is to sort out artefacts and off-target activity.)

Test [4] relates to THP-1 ASC-GFP cells. As to the kind of experiment: THP-1 ASC-GFP speck assay (NLRP3 inflammasome activation, nigericin). The test is classed as cell-based. To be noted: THP1-ASC-GFP; PMA-differentiated, LPS primed, 10 μM nigericin. A digest of the protocol:
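PMA-differentiated (500 ng/ml, overnight) THP-1 ASC-GFP cells primed with LPS 1 μg/mL for 3 h, pre-treated 30 min with compound (20-point, 2-fold from 40 μM), then nigericin 10 μM for 90 min. After fixation, imaging gives % cells with ASC-GFP specks against Hoechst-counted nuclei.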

Setting [5] is: PBMC, LPS priming, read-out: PMBC IL-1β IC50.
Where [6] appears, read: LPS 100 ng/mL priming, read-out: IL-1B pIC50 (converted).
[7] abbreviates: LPS and nigericin stimulated cells, read-out: CTG pIC50 (converted).
Where [8] appears, read: LPS and nigericin stimulated cells, read-out: TNFa pIC50 (converted).

T1 sequence (Q96P20 whole entry): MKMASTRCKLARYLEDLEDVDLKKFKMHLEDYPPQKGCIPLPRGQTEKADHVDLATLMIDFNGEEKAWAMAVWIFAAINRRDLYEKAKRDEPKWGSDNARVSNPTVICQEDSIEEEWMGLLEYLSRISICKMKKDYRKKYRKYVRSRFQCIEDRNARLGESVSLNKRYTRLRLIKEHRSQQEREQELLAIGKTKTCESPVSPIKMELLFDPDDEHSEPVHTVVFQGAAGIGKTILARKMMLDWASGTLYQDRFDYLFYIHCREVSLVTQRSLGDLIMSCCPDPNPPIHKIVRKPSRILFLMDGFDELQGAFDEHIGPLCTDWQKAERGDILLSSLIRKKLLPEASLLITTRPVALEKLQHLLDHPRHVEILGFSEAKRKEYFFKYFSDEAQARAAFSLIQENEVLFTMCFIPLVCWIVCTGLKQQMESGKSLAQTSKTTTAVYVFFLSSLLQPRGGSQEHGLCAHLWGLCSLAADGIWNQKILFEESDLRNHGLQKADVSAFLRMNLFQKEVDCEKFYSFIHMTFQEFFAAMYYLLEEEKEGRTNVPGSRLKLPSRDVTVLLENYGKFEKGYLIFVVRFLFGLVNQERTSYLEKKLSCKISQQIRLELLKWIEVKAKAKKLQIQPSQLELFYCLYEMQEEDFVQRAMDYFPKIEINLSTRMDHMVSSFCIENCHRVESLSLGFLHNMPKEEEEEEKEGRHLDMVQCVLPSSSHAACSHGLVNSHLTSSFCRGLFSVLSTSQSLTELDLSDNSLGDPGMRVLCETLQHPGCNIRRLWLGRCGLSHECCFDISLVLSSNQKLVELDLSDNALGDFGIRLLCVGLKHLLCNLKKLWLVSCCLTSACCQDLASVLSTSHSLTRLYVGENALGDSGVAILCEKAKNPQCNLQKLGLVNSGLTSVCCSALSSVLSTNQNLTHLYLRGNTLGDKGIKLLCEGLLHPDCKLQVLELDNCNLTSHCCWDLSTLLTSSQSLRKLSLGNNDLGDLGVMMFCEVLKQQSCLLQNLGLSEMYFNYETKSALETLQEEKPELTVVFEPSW

Regarding `CC(C)c1ncc2c(c1NC(=O)NS(=O)(=O)c1cnn3c1OCCC3)CCC2` [Example 55, N-((3-isopropyl-6,7-dihydro-5H-cyclopenta[c]pyridin-4-yl)carbamoyl)-6,7-dihydro-5H-pyrazolo[5,1-b][1,3]oxazine-3-sulfonamide], the IC50 in test [1] (setting [5]), in test [2] (read-out: PMBC CTG IC50 (μM)) and in test [3] (read-out: PMBC TNFα IC50 (μM)) was above 10 µM throughout.
In the case of `COc1cc(C(C)C)c(NC(=O)NS(=O)(=O)c2cnn3c2OCC(C)(C)C3)c(C(C)C)n1` [Example 47, N-((2,4-diisopropyl-6-methoxypyridin-3-yl)carbamoyl)-6,6-dimethyl-6,7-dihydro-5H-pyrazolo[5,1-b][1,3]oxazine-3-sulfonamide], the IC50 in test [1] (setting [5]) is 2.01 µM; in test [2] (read-out: PMBC CTG IC50), 1.16 µM; in test [3] (read-out: PMBC TNFα IC50), above 10 µM; in test [4] it was 8.3 µM.
Take `COc1cc(C(C)C)c(NC(=O)NS(=O)(=O)c2cnn3c2OC[C@@H](N(C)C)C3)c(C(C)C)n1` [drawing 419]: the IC50 was 0.1 to 1 µM in test [1] (setting [6]), 0.1 to 1 µM in test [2] (setting [7]) and above 10 µM in test [3] (setting [8]).
For the molecule `CC(C)c1ncc2c(c1NC(=O)NS(=O)(=O)c1cnn3c1OCCC3)CCC2` [drawing 422], the IC50 in test [1] (setting [6]), in test [2] (setting [7]) and in test [3] (setting [8]) was above 10 µM each time.
`COc1cc(C(C)C)c(NC(=O)NS(=O)(=O)c2cnn3c2OCC(C)(C)C3)c(C(C)C)n1` [drawing 414]: the IC50 was 1 to 10 µM in test [1] (setting [6]), 1 to 10 µM in test [2] (setting [7]) and above 10 µM in test [3] (setting [8]).
Consider `Cc1cc(C(C)C)c(NC(=O)NS(=O)(=O)c2cnn3c2OCCC3)c(C(C)C)n1` [Example 48, N-((2,4-diisopropyl-6-methylpyridin-3-yl)carbamoyl)-6,7-dihydro-5H-pyrazolo[5,1-b][1,3]oxazine-3-sulfonamide], for which the IC50 is 2.47 µM in test [1] (setting [5]), 2.43 µM in test [2] (read-out: PMBC CTG IC50), above 10 µM in test [3] (read-out: PMBC TNFα IC50) and 2 µM in test [4].
Taken in the same sequence, the figures for `CC(C)c1cc(C(F)(F)F)nc(C(C)C)c1NC(=O)NS(=O)(=O)c1cnn2c1OCCC2` [Example 54, N-((2,4-diisopropyl-6-(trifluoromethyl)pyridin-3-yl)carbamoyl)-6,7-dihydro-5H-pyrazolo[5,1-b][1,3]oxazine-3-sulfonamide] were 0.32 µM, 0.016 µM, above 10 µM and 0.62 µM.
As for `Cc1cc(C(C)C)c(NC(=O)NS(=O)(=O)c2cnn3c2OCCC3)c(C(C)C)n1` [drawing 415], the figures for the IC50 in test [1] (setting [6]), in test [2] (setting [7]) and in test [3] (setting [8]) were 1 to 10 µM, 1 to 10 µM and above 10 µM, respectively.
Regarding `CNc1cc(C(C)C)c(NC(=O)NS(=O)(=O)c2cnn3c2OCCC3)c(C(C)C)n1` [drawing 420], the IC50 was 1 to 10 µM in test [1] (setting [6]), 0.1 to 1 µM in test [2] (setting [7]) and above 10 µM in test [3] (setting [8]).
With `COc1cc(C(C)C)c(NC(=O)NS(=O)(=O)c2cnn3c2OC[C@@H](N(C)C)C3)c(C(C)C)n1` [Example 52a, (S)—N-((2,4-diisopropyl-6-methoxypyridin-3-yl)carbamoyl)-6-(dimethylamino)-6,7-dihydro-5H-pyrazolo[5,1-b][1,3]oxazine-3-sulfonamide], the IC50 in test [1] (setting [5]) is 0.79 µM; in test [2] (read-out: PMBC CTG IC50) it was 0.39 µM; in test [3] (read-out: PMBC TNFα IC50), above 10 µM; in test [4], 0.5 µM.
Consider `CNc1cc(C(C)C)c(NC(=O)NS(=O)(=O)c2cnn3c2OCCC3)c(C(C)C)n1` [Example 53, N-((2,4-diisopropyl-6-(methylamino)pyridin-3-yl)carbamoyl)-6,7-dihydro-5H-pyrazolo[5,1-b][1,3]oxazine-3-sulfonamide], for which the IC50 in test [1] (setting [5]) is 3.4 µM; in test [2] (read-out: PMBC CTG IC50), 0.88 µM; in test [3] (read-out: PMBC TNFα IC50) it was above 10 µM; in test [4], 3.3 µM.
With `CC(C)NC(=O)NS(=O)(=O)c1cnn2c1OCC(CN)C2` (racemic) [Example 56, 6-(aminomethyl)-N-(isopropylcarbamoyl)-6,7-dihydro-5H-pyrazolo[5,1-b][1,3]oxazine-3-sulfonamide], the IC50 in test [1] (setting [5]), in test [2] (read-out: PMBC CTG IC50) and in test [3] (read-out: PMBC TNFα IC50) was above 10 µM throughout.
Turning to `CC(C)NC(=O)NS(=O)(=O)c1cnn2c1OCC(CN)C2` (centres unmarked), the IC50 in test [1] (setting [6]), in test [2] (setting [7]) and in test [3] (setting [8]) was above 10 µM in each case.
As to `CC(C)c1cc(C(F)(F)F)nc(C(C)C)c1NC(=O)NS(=O)(=O)c1cnn2c1OCCC2` [drawing 421], the IC50 in test [1] (setting [6]) is 0.1 to 1 µM; in test [2] (setting [7]), below 0.1 µM; in test [3] (setting [8]) it was above 10 µM.
